Each block holds one compound with its values, some of them ahead of it.
Experiments:
[1] = molecular target: T1, cathepsin S (CTSS) (Homo sapiens, UniProt P25774); assay: FRET assay for cathepsin S (inhibitor screen and substrate cleavage); assay type: biochemical; conditions: for inhibition of cathepsin S activity (MCA fluorescent emission): CTSS, peptide of SEQ ID NO: 1 as substrate, Fig. 3; for cleavage by CTSS as substrate: FRET, CTSS-His-WT, SEQ ID NO: 1 compared with SEQ ID NO: 4
T1 construct: made in house; host or cells: HEK293
Protocol: CTSS-His WT and Y132D were diluted to 10 µg/mL in Assay buffer (50 mM NaOAc, 5 mM DTT, 250 mM NaCl), at pH 4.5 and incubated at 37°C for 90 minutes to allow auto-activation. The proteins were then diluted to 0.5 ng/µl in Assay buffer and plated in 96-well plates (50 µl/well). The peptides of SEQ ID NO: 1, SEQ ID NO: 2, SEQ ID NO: 3, SEQ ID NO: 4 and SEQ ID NO: 5 were synthesized and diluted to 20 µM in a buffer (50 mM NaOAc, 5 mM DTT, 250 mM NaCl) then added to the activated CTSS (50 µl/well). 50 µM E64 (Selleckchem, cat #S7379) was added to CTSS prior to the substrate as positive control. A commercially available CTSS purified protein (R&D systems, cat #1183-CY-010) was in addition used as control. MCA emission was measured with SpectraMax iD3 (Molecular Devices) in kinetic mode for 20 minutes (excitation: 330 nm, emission: 390 nm).
The FRET assay was miniaturized to performed the screen in […] and each molecule was tested in duplicates. 10 µg/ml of CTSS was incubated in the activation buffer for 105 minutes to allow a complete activation of the enzyme. Then, the enzyme was diluted at 0.5 µg/ml and dispensed in […] pre-loaded with the small molecule candidates using an automatic dispenser (Biotek Dispenser multiflo). The plates were incubated for 10 minutes at room temperature and then 20 µM of substrate was added in each well and acquired the fluorescence signal (excitation: 330 nm, emission: 390 nm) after 90 minutes. For each plate, were included untreated wells as negative control and E64 was used (150 µM) as positive control. To assess the quality of the screen, a Z'-score for each plate was calculated and all plates had Z' score > 0.6. To identify possible hits, the average value and standard deviation of the positive and negative control were calculated. The upper and lower limit values for each plate were calculated considering plus/minus three times the standard deviation to the average and only compounds that in both independent duplicate scored below the positive control threshold were retained.

[2] = system: human lymphoma cancer cell lines (Karpas-422 and DoHH2); assay: Cell viability assay in lymphoma cell lines; assay type: cell-based; conditions: for toxicity / cell survival: Karpas-422 and DoHH2, 48h or 72h, increasing doses up to 50 µM
Protocol: Two human lymphoma cell lines DoHH2 and Karpas-422 and one murine lymphoma cell line A20 were treated with increasing concentration of compounds (1), (5) and (9). 24 hours before treatment cells were diluted at 2^∗10^5 cells/ml. Cell number was measured at 48h and 72h after treatment using automatic cell counting of Millipore Guava. The values were normalized to cells treated with the same dose of vehicle (DMSO).
Next, the toxicity of these inhibitors on two human lymphoma cancer cell lines (Karpas-422 and DoHH2). The cells were treated with the small molecules for 48h or 72h at increasing doses (50 µM, 10 µM, µM, 0.1 µM). […] Conversely, compound (9) progressively decreases cell proliferation of up to 50% after 72 hours of exposure to the 0. 1 µM of the compound or less than 30% in cells treated with 10 or 50 µM.

[3] = molecular target: cathepsin B (CTSB) (Homo sapiens, UniProt P07858); assay: FRET specificity assay for cathepsin B; assay type: biochemical; conditions: for inhibition of Cathepsin B activity (MCA fluorescent emission): CTSB, peptide of SEQ ID NO: 5 as substrate, Fig. 4
Protocol: (§1) First, specific conditions to activate the enzymes were used as follows: CTSB was diluted in active buffer (MES 25 mM, DTT 5 mM, pH 5) at 10 µg/ml, incubated at 37°C for 2h and then diluted to 1 µg/ml in assay buffer (MES 25 mM, pH 5) for the FRET assay. CTSH was diluted in a specific active buffer (MES 50 mM, CaCl2 10 mM, NaCl 150 mM, pH 6.5) 200 µg/ml. In addition, as co-stimulatory activator thermolysin diluted at 100 µg/ml in active buffer was used mixed with equal volume of the diluted CTSH. The solution was incubated for 1h room temperature and then we added 2 mM Phosporamidon diluted in assay buffer (MES 50 mM, pH 6,5) and incubate the mix for 10 minutes at room temperature. Lastly, an equal volume of assay buffer containing 20 mM DTT was added and the mixture incubated 5 minutes at room temperature. For the FRET assay, diluted both CTSH, and CTSB at 1 µg/ml were used in their specific assay buffer and incubated with a specific substrate. As substrate, the following peptides were used: peptide of SEQ ID NO: 5 (KPPKPVSD) in CTSB FRET assays and SEQ ID NO: 1 (KLRMKLPKP) in CTSH FRET assays and tested increasing doses of candidate inhibitors (20 µM, 10 µM, 1 µM, 0.1 µM). Fluorescence emission was measured with SpectraMax iD3 (Molecular Devices) in kinetic mode over three hours (excitation: 330 nm, emission: 390 nm).

[4] = molecular target: cathepsin H (CTSH) (Homo sapiens, UniProt P09668); assay: FRET specificity assay for cathepsin H; assay type: biochemical; conditions: peptide of SEQ ID NO: 2 as substrate, Fig. 5
Protocol: as §1, with “As substrate, the following peptides were used: peptide of SEQ ID NO: 5 (KPPKPVSD) in CTSB FRET assays and SEQ ID NO: 1 (KLRMKLPKP) in CTSH FRET assays and tested increasing doses of candidate inhibitors (20 µM, 10 µM, 1 µM, 0.1 µM).” left out

[5] = system: A20-HA lymphoma cells co-incubated with CD8+ T-cells isolated from CL4-HA transgenic animals; assay: Co-culture assay of A20-HA lymphoma cells with CD8+ T-cells; assay type: cell-based, mouse; conditions: A20-HA cells pre-treated with 30uM inhibitor; for over-activation of CD8+ T-cells: 72h co-incubation
Protocol: Proteins were extracted using a buffer containing 20 mM Tris-HCl (pH 7.5) 150 mM NaCl, 1 mM Na2EDTA 1 mM EGTA 1% NP-40 1% sodium deoxycholate 2.5 mM sodium pyrophosphate 1 mM β-glycerophosphate 1 mM Na3VO4 1 µg/ml leupeptin) supplemented with protease (Sigma Aldrich, cat #11836153001) and phosphatases (Roche, cat #04906837001) inhibitors and quantified with the Bradford reagent (Bio-Rad, cat #5000006). 20-30 µg of proteins were resolved on SDS-PAGE and transferred at 20V for 20-30 minutes to Immobilon-P-membranes (Millipore). After blocking in 5% milk (Applichem, cat #A0830) in PBS-0.1%Tween (Fisher scientific, cat #BP337), membranes were incubated overnight in 5% milk in PBS-Tween with the following primary antibodies: goat anti-human Cathepsin S (RD, cat #AF1183, 1:2000), Cathepsin B (D1C7Y) XP® Rabbit (Cell signaling mAb #31718), rabbit anti-mouse Cathepsin S (Sino Biological, cat #50769-R054, 1:1000), mouse anti-human CD74 (PIN.1, StressMarq, cat #SMC-116, diluted 1:1000), rat-anti-mouse CD74 (clone ln-1, BD biosciences, cat #555317, 1:1000), rabbit anti-his-Tag (Cell Signaling, cat #D3I10, dilute 1:1000), mouse anti-human alpha-Tubulin (clone B-5-1-2, Sigma Aldrich, cat#T6072, diluted 1:10000), anti-beta actin (clone 8H10D10, ThermoFisher Scientific, cat# MA5-15452, 1:1000).
At the end of the B-cell/T cell co-culture, […] and analyzed for the proliferation of T cells stained with an Pe-Cy7 anti-mouse CD8a antibody (Clone 53-6.7, BD Biosciences, San Jose, CA, USA, cat #552877) or PercP efluor 710 rat anti-CD4 antibody (bd bioscience, cat#564379) by quantifying CellTrace violet proliferation peaks using flow cytometry. In parallel, B cell concentration was measured using cell-counting flow-cytometer (Guava easyCyte). A20-HA lymphoma cells wild-type, Ctss knock-out, B2m knock-out, and Pdl1 knock-out expressing HA as antigen were pre-treated with 30uM E64 (Apexbio Technology LLC (cat #A2576), 30uM Z-FL-COCHO (Anawa trading SA, cat #A13502-5), 30uM LY300328 (Lucerna Chem AG, cat # MCE-HY-15533) or-directly co-incubated for 72h with CellTrace violet stained CD8+ T-cells isolated from CL4-HA transgenic animals. At the end of the B-cell/T cell co-culture, cells were collected, stained with PE-Cy7 anti-mouse CD8a antibody (Clone 53-6.7, BD Biosciences, San Jose, CA, USA cat #552877) and analyzed for the proliferation of T cells stained by quantifying CellTrace violet proliferation peaks using flow cytometry. In parallel, B cell concentration was measured using cell-counting flow-cytometer (Guava easyCyte).

Sequence of cathepsin H (CTSH) (P09668 116-335 limits assumed, other chains not shown): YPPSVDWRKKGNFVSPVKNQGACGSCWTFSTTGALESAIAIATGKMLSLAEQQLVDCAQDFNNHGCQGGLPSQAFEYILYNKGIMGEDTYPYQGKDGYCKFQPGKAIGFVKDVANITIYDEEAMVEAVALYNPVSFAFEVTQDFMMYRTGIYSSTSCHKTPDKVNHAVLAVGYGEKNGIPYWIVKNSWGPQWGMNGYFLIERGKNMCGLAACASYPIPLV
T1 sequence (P25774 115-331): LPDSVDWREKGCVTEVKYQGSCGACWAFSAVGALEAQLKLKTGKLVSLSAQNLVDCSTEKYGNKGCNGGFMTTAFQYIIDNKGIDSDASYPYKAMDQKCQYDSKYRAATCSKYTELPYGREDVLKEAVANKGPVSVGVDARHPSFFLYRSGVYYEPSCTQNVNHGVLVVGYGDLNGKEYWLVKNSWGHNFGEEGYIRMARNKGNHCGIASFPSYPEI

inhibition of cathepsin S activity (MCA fluorescent emission) [1]: able to inhibit cathepsin S activity
inhibition of Cathepsin B activity (MCA fluorescent emission) [3]: not Cathepsin B
inhibition of Cathepsin H activity (MCA fluorescent emission) [4]: not Cathepsin H
Compound: Cc1noc(C)c1CC(=O)NCCn1nc(-c2ccco2)ccc1=O [compound (5), N-[2-[3-(2-furanyl)-6-oxo-1(6H)-pyridazinyl]ethyl]-3,5-dimethyl-4-isoxazoleacetamide]
toxicity / cell survival [2]: well tolerated

inhibition of cathepsin S activity (MCA fluorescent emission) [1]: able to inhibit cathepsin S activity
inhibition of Cathepsin B activity (MCA fluorescent emission) [3]: not Cathepsin B
inhibition of Cathepsin H activity (MCA fluorescent emission) [4]: not Cathepsin H
Compound: O=c1ccc(-c2ccco2)nn1CCNS(=O)(=O)c1ccccc1F [compound (1), 2-fluoro-N-[2-[3-(2-furanyl)-6-oxo-1(6H)-pyridazinyl]ethyl]-benzenesulfonamide]
toxicity / cell survival [2]: well tolerated

inhibition of cathepsin S activity (MCA fluorescent emission) [1]: able to inhibit cathepsin S activity
inhibition of Cathepsin B activity (MCA fluorescent emission) [3]: not Cathepsin B
inhibition of Cathepsin H activity (MCA fluorescent emission) [4]: not Cathepsin H
Compound: Cc1oc2ncnc(N3CCCC(C(=O)NCCc4ccco4)C3)c2c1C (stereo not shown) [compound (11), 1-(5,6-dimethylfuro[2,3-d]pyrimidin-4-yl)-N-[2-(2-furanyl)ethyl]-3-piperidinecarboxamide]

The remaining lines, values behind:

Compound: KLRMKLPKP [SEQ ID NO: 1]
cleavage by CTSS as substrate [1]: cleaved more efficiently

Compound: Z-FL-COCHO
accumulation of the small fragment of CD74, p10 [5]: observed
over-activation of CD8+ T-cells [5]: no over-activation

Compound: KLRMKLPKD [SEQ ID NO: 2]
cleavage by CTSS as substrate [1]: improved cathepsin S substrate

Compound: KPPKPVSK [SEQ ID NO: 4]
substrate for Cathepsin B [3]: good substrate for Cathepsin B

Compound: CC(C)C[C@H](NC(=O)[C@H]1O[C@@H]1C(=O)O)C(=O)NCCCCNC(=N)N [E64]
accumulation of the small fragment of CD74, p10 [5]: observed
over-activation of CD8+ T-cells [5]: no over-activation

Compound: Cc1nc(N2CCCC(C(=O)NCc3ccco3)C2)c2c(C)c(C)oc2n1 (stereo not shown) [compound (9), N-(2-furanylmethyl)-1-(2,5,6-trimethylfuro[2,3-d]pyrimidin-4-yl)-3-piperidinecarboxamide]
inhibition at 0.1 µM ([2]; Homo sapiens, after 72 hours of exposure to 0.1 µM, read-out: decrease of cell proliferation): ≤ 50%
